Laboratory results reported in US20230173004A1, “Method and Composition for Treating Ringworm on Biotic and Abiotic Surfaces” (Jeneil Biosurfactant Company, LLC, priority 2021, published 2023).

Test system: ringworm infection
Assay: Treatment of ringworm infections on the skin of volunteer patients
Format: in vivo, human
Conditions: twin teenage boys; prescribed oral treatment
Experimental: The effectiveness of Composition A in treating fungal infections on the skin was determined on volunteer patients. In a first case, twin teenage boys were experiencing ringworm infections on the face, scalp, and neck. […] For […], the ringworm sores on […] face were treated by directly applying Composition A to the sores.
The other teenage child was treated with a 100% solution of Composition A by dabbing it on the sores of their scalp and neck using a cotton swab twice a day over the course of 3 days. Various sores were treated over the next four to seven days with a diluted solution of Composition A. In particular, a few drops of Composition A were diluted with 10 drops of water, and the diluted solution was applied to the sores. […] Thereafter, a 1:100 solution of Composition A in water was used as a preventative treatment on the scalp prior to showering to avoid new ringworm infections.
Thus, in a second test case, Composition A was used to treat a ringworm infection on the neck and shoulder region of a teenage child. Composition A was formulated with an aloe vera clear cream at a 2% w/v.
In a third case, a middle-aged person was experiencing a significant ringworm infection on one foot. The ringworm infection was treated with Composition A in an aloe vera clear cream at 2% w/v.

Structure (SMILES): OC(Cn1cncn1)(Cn1cncn1)c1ccc(F)cc1F [oral fluconazole, fluconazole]
- ringworm infections on face, scalp and neck: ineffective at completely eradicating the ringworm infection
